# In patent US8501911B2, “Methods of reducing inflammation and mucus hypersecretion” (Biomarck Pharmaceuticals, Ltd, priority 1999, dated 2013):
# “And” between values parts separate entries of the source, which are not always exact repeats. Identical values can stand only once. Like-named read-outs stand apart in the source and are kept apart here. Residues, ends and D or L forms follow the SMILES beside them. *: point of attachment. Myristoyl = CCCCCCCCCCCCCC(=O)*
# Legend:
# [1] = test system: LPS-primed canine neutrophils; experiment: MPO secretion from LPS-primed canine neutrophils; type: cell-based
# Protocol: Results-I-11 and Results-I-12 show MPO secretion from LPS-primed human neutrophils as a model for humans, and Results-I-13, Results-I-14, and Results-I-15 show MPO secretion from LPS-primed canine neutrophils as a model for canines. In all of these experiments, isolated neutrophils were stimulated with LPS at a concentration of 1×10^−6 M for 10 minutes at 37° C. prior to adding the stimuli. The LPS primes the cells so they can respond to a secretagogue.
# In another comparative experiment, when absorbance was monitored at 450 nm while observing MPO secretion from LPS-primed canine neutrophils, Results-I-13 were obtained as follows.
# In another comparative experiment, when absorbance was monitored at 450 nm while observing MPO secretion from LPS-primed canine neutrophils, Results-I-14 were obtained as follows.
# In another comparative experiment, when absorbance was monitored at 450 nm while observing MPO secretion from LPS-primed canine neutrophils, Results-I-15 were obtained as follows.
# Isolation of PMNs from canine blood—The steps involved in isolating PMN include collecting 10 ml ACD anticoagulated blood; then layering 5 ml on 3.5 ml PMN isolation media while ensuring that the PMN isolation media (IM) was at room temperature (RI). Next, the blood was centrifuged at room temperature for 30′, 550×g at 1700 RPMs. The low lower white band was transferred into a 15 ml conical centrifuge tube (CCFT). Next, 2V HESS with 10% fetal bovine serum […] was added and centrifuged at room temperature for 10′, 400×g at 1400 RPMs. The pellet was then resuspended in 5 ml 1-1ESS with PBS. The cell suspension was added to 50 ml CCFT containing 20 ml of ice cold 0.88% NH4 Cland inverted two to three times. […]
# MPO Colorimetric Enzyme Assay—Samples were assayed for MPO activity in 96 well round bottom microtiter plates using a sandwich ELISA kit (R & D Systems, Minneapolis, Minn.). […] After mixing, the assay mixture was incubated at room temperature for 5 minutes, and MPO enzyme activity determined spectrophotometrically at […]. […]
# NHBE cells = experiment: Cytotoxicity / metabolic activity of NHBE cells (LDH release, deoxyglucose uptake); type: cell-based, human; conditions: peptide 1-100 μM
# Protocol: In Results-I-2B-1 and Results-I-2B-2, the MANS peptide blocked mucin hypersecretion induced by PMA+8-Br-cGMP or UTP in a concentration-dependent manner. NHBE cells were preincubated with the indicated peptide for 15 min and then exposed to PMA (100 nM)+8-Br-cGMP (1 μM) for 15 min or UTP (100 μM) for 2 h. Mucin secretion was measured by ELISA.
# Cytotoxicity Assay—All reagents used in treating NHBE cells were examined for cytotoxicity by measuring the total release of lactate dehydrogenase from the cells. The assay was carried out using the Promega Cytotox 96 Kit according to the manufacturer's instructions. All experiments were performed with reagents at non-cytotoxic concentrations.
# [2] = test system: LPS-induced lung inflammation; type: in vivo, mouse; conditions: for Hb / MPO / LDH / Total Protein: BAL fluid; for % Inhibition of MPO: mouse, in vivo; for % Inhibition of neutrophil migration: relative to PBS/LPS treatment
# Protocol: Thus, six to seven week old CD1 female mice weighing 15-20 grams were obtained from Charles River laboratories and housed in groups of 5 mice per cage. The animals received standard rodent diet and filtered water ad libitum. The animals were housed under NIH prescribed guidelines at standard temperature (64° to 79° F.) and relative humidity of 30 to 70%.
# Four treatment groups of mice, with 5 animals in each group, were treated either with PBS followed by PBS, with PBS followed by LPS, with (myristoylated) MANS peptide followed by LPS, or with peptide of SEQ ID NO: 15 (MA-GAQFSKTAAK) followed by LPS.
# Intranasal peptide instillation pre-treatment: A peptide of the invention to be evaluated in vivo for its ability to inhibit or reduce LPS-induced lung inflammation was dissolved in PBS at a concentration of 1 mM. Animals, anesthetized with 0.8% isofluorane by inhalation, were pretreated with 2×10 μl intranasal bolus of the peptide solution into one nostril 30 minutes prior to subsequent instillation with LPS.
# Intranasal LPS instillation: Lipopolysaccharide (LPS) Endotoxin (Escherichia coli Serotype 011:B4 derived endotoxin; Sigma, St Louis, Mo.; see Sigma product information sheet L4130 titled Lipopolysaccharides from Escherichia coli 011:B4) was dissolved into phosphate buffered saline (PBS) at 2,500 μg/mL. To expose animals to endotoxin, a 10 μL intranasal bolus of 2,500 μg/ml endotoxin solution was administered to animals which had been anesthetized with 0.8% isofluorane by inhalation. The 10 μL bolus was applied into one nostril. Animals were monitored for labored breathing, lethargy, and decreased water/food intake following the endotoxin instillations.
# Bronchoalveolar Lavage (BAL): Six hours after the last instillation, the animals were anesthetized (90 mg/kg Nembutal) and sacrificed by exsanguination. The lung was serially lavaged 2 times with 1.0 mL aliquots of PBS. The collected BAL fluid was centrifuged to remove the cells for subsequent counting and differential analysis. Recovered lavage fluid was used for analysis of total protein, myeloperoxidase (MPO), LDH, and hemoglobin.
# Analysis: Aliquots of the BAL fluid were used immediately to assay for the levels of LDH, total protein, or hemoglobin (Hb) using the COBAS Fara analyzer (COBAS FARA II automated analyzer; Roche Diagnostic Systems Inc., Montclair, N.J.). An aliquot of BAL fluid was frozen at −80° C. for subsequent quantitation of myeloperoxidase (MPO) with a mouse-specific ELISA assay (Cell Sciences, Inc., Canton, Mass.). BAL data were analyzed by standard techniques to examine differences between the control and treatment groups.
smiles,measurement,setting,value
Nc1nc2c(nc(Br)n2[C@@H]2O[C@@H]3COP(=O)(O)O[C@H]3[C@H]2O)c(=O)[nH]1 [8-Br-cGMP],Absorbance reading at 450 nm (MPO secretion),[1]; 8-Br-cGMP 1 micromolar alone,approximately 0.078
same,Absorbance reading at 450 nm (MPO secretion),[1]; 8-Br-cGMP 10 micromolar alone,approximately 0.0835
CCCCCCCCCCCCCC(=O)NCC(=O)N[C@@H](C)C(=O)N[C@@H](CCC(N)=O)C(=O)N[C@@H](Cc1ccccc1)C(=O)N[C@@H](CO)C(=O)N[C@@H](CCCCN)C(=O)N[C@H](C(=O)N[C@@H](C)C(=O)N[C@@H](C)C(=O)N[C@@H](CCCCN)C(=O)NCC(=O)N[C@@H](CCC(=O)O)C(=O)N[C@@H](C)C(=O)N[C@@H](C)C(=O)N[C@@H](C)C(=O)N[C@@H](CCC(=O)O)C(=O)N[C@@H](CCCNC(=N)N)C(=O)N1CCC[C@H]1C(=O)NCC(=O)N[C@@H](CCC(=O)O)C(=O)N[C@@H](C)C(=O)N[C@@H](C)C(=O)N[C@H](C(=O)N[C@@H](C)C(=O)O)C(C)C)[C@@H](C)O [MANS peptide] (Myristoyl-GAQFSKTAAKGEAAAERPGEAAVA-OH; C-terminus assumed),Lactate dehydrogenase release,NHBE cells,neither the MANS nor the RNS peptide affected
same,[3H]deoxyglucose uptake,NHBE cells,neither the MANS nor the RNS peptide affected
same,Total cells counted,"[2]; BAL 6 h after LPS, intranasal 2×10 μl of 1 mM peptide 30 min before LPS, Table 3 (PBS/LPS 264,200)","208,457"
same,Hb,[2]; Table 3 (PBS/LPS 0.19),0.05 g/dL
same,MPO,[2]; Table 3 (PBS/LPS 28.98),9.49 ng/mL
same,LDH,[2]; Table 3 (PBS/LPS 60.40),68.57 units/L
same,Total Protein,[2]; Table 3 (PBS/LPS 272.40),175.00 µg/mL
same,% Neutrophils of total cells,[2]; Table 3 (PBS/LPS 41.7),30.9%
same,Total neutrophils counted,"[2]; Table 3 (PBS/LPS 110,061)","64,481"
same,% Inhibition of MPO,[2],67.2%
same,% Inhibition of neutrophil migration,[2],41.4%
"CCCCCCCCCCCCCC(=O)O[C@@H]1[C@@H](C)[C@@]2(O)[C@@H](C=C(CO)C[C@]3(O)C(=O)C(C)=C[C@@H]23)[C@@H]2C(C)(C)[C@]12OC(C)=O [PMA, phorbol 12-myristate 13-acetate]",Absorbance reading at 450 nm (MPO secretion),[1]; 100 nM PMA alone,0.078 and 0.0825
"CCCCCCCCCCCCCC(=O)NCC(=O)N[C@H](C(=O)N[C@@H](C)C(=O)N1CCC[C@H]1C(=O)N[C@@H](C)C(=O)N[C@@H](C)C(=O)N[C@@H](CCC(=O)O)C(=O)NCC(=O)N[C@@H](C)C(=O)NCC(=O)N[C@@H](C)C(=O)N[C@@H](CCC(=O)O)C(=O)N[C@H](C(=O)N[C@@H](CCCCN)C(=O)N[C@@H](CCCNC(=N)N)C(=O)N[C@@H](C)C(=O)N[C@@H](CO)C(=O)N[C@@H](C)C(=O)N[C@@H](CCC(=O)O)C(=O)N[C@@H](C)C(=O)N[C@@H](CCCCN)C(=O)N[C@@H](CCC(N)=O)C(=O)N[C@@H](C)C(=O)N[C@@H](Cc1ccccc1)C(=O)O)C(C)C)[C@@H](C)O [RNS peptide, reference compound] (Myristoyl-GTAPAAEGAGAEVKRASAEAKQAF-OH; C-terminus assumed)",Lactate dehydrogenase release,NHBE cells,neither the MANS nor the RNS peptide affected
same,[3H]deoxyglucose uptake,NHBE cells,neither the MANS nor the RNS peptide affected
"CCCCCCCCCCCCCC(=O)NCC(=O)N[C@@H](C)C(=O)N[C@@H](CCC(N)=O)C(=O)N[C@@H](Cc1ccccc1)C(=O)N[C@@H](CO)C(=O)N[C@@H](CCCCN)C(=O)N[C@H](C(=O)N[C@@H](C)C(=O)N[C@@H](C)C(=O)N[C@@H](CCCCN)C(=O)O)[C@@H](C)O [SEQ ID NO: 15, N-myristoyl-GAQFSKTAAK] (Myristoyl-GAQFSKTAAK-OH; C-terminus assumed)",Total Cell Counts,"[2]; BAL 6 h after LPS, intranasal peptide 30 min before LPS, Table 4 (PBS/LPS 422,300)","628,075"
same,Hb,[2]; Table 4 (PBS/LPS 0.01),0.01 g/dL
same,MPO,[2]; Table 4 (PBS/LPS 17.33),0.79 ng/mL
same,LDH,[2]; Table 4 (PBS/LPS 107.80),110.75 units/L
same,Total Protein,[2]; Table 4 (PBS/LPS 157.40),120.25 µg/mL
same,% Neutrophils of total counts,[2]; Table 4 (PBS/LPS 28.2),6.1%
same,Total Neutrophil counts,"[2]; Table 4 (PBS/LPS 119,114)","38,548"
same,% Inhibition of MPO,[2],95.4%
same,% Inhibition of neutrophil migration,[2],67.6%
